The text below walks through data of patent US11859014B2, “Peptidomimetics for the treatment of Norovirus infection” (EMORY UNIVERSITY, priority 2016, dated 2024).

Data set [1] can be described thus: Cellular toxicity assay in CEM cells. It counts as cell-based. Conditions: human, read-out: Cytotoxicity, CC50 (μM) CEM. Here is the method:
(§1) The toxicity of the compounds was assessed in Vero, human PBM, CEM (human lymphoblastoid), MT-2, and HepG2 cells, as described previously (see Schinazi R. F., Sommadossi J.-P., Saalmann V., Cannon D. L., Xie M.-Y., Hart G. C., Smith G. A. & Hahn E. F. Antimicrob. Agents Chemother. 1990, 34, 1061-67). Cycloheximide was included as positive cytotoxic control, and untreated cells exposed to solvent were included as negative controls. The cytotoxicity CC50 was obtained from the concentration-response curve using the median effective method described previously (see Chou T.-C. & Talalay P. Adv. Enzyme Regul. 1984, 22, 27-55; Belen'kii M. S. & Schinazi R. F. Antiviral Res. 1994, 25, 1-11).

The subject of data set [2] is NoV replicon RNA in HG23 cells (derived from Huh-7 cells). Briefly: Norwalk virus replicon assay in HG23 cells. It counts as cell-based. Conditions: 120 h, five days incubation; for EC50: read-out: Anti-NoV activity (μM) EC50; for EC90: read-out: Anti-NoV activity (μM) EC90. The method, then: Norwalk virus replicon assays were performed as reported by Constantini et al. (Antivir Ther 2012, 17, 981-991). HG23 cells (derived from Huh-7 cells) containing NoV replicon RNA are seeded at a density of 3,000 cells/well in 96-well plates and incubated at 37° C. and 5% CO2 overnight. Compounds were tested at concentrations ranging from 0.1 to 100 μM. Compounds were added in triplicate to 80 to 90% confluent monolayers and incubated at 37° C. and 5% CO2. Untreated cells were included in each plate. Following five days incubation (37° C., 5% CO2), total cellular RNA was isolated with RNeasy96 extraction kit from Qiagen. Replicon RNA and an internal control (TaqMan rRNA control reagents, Applied Biosystems) were amplified in a single step.
The median effective concentrations (EC50) ranges of several of the compounds described herein against NoV are shown in Table 3: […]

Data set [3] is described as follows: Cellular toxicity assay in Vero cells. Conditions: African green monkey, read-out: Cytotoxicity, CC50 (μM) VERO. It counts as cell-based. The method, then: as §1
Data set [4] can be described thus: Cellular toxicity assay in Huh7 cells. As to conditions: human, read-out: Cytotoxicity, CC50 (μM) Huh7. It counts as cell-based. Here is the method: [The procedure below names another cell line; the source lists this cell line under the same test.] as §1
Data set [5] in a line: Cellular toxicity assay in PBM cells. It counts as cell-based. As to conditions: human, read-out: Cytotoxicity, CC50 (μM) PBM. Here is the method:
as §1

Data set [6] deals with Norovirus GI.1 (Norwalk virus) protease (Norovirus (strain Human/NoV/United States/Norwalk/1968/GI) (Hu/NV/NV/1968/US), UniProt Q83883). Briefly: FRET based enzyme assay, Norovirus GI.1 protease. It counts as biochemical. As to conditions: 37° C. The method, then:
Norovirus GI.1 (Norwalk virus) protease were tested for enzymatic activity using a fluorescence resonance energy transfer (FRET) based enzyme assay. Norovirus GI.1 represents 5 to 10% of the clinical isolates. The FRET kinetic enzyme assays were performed as follows. The purified viral protease was diluted in reaction buffer (50 mM HEPES, pH 8.0, 120 mM NaCl, 0.4 mM EDTA, 20% glycerol, and 4 mM DTT) to a final concentration of 128 nM. Each reaction was initiated by addition of FRET substrate [(HiLyte Fluor 488) -[…]-(QXL520)]. To determine kinetic parameters, the FRET substrate was serially diluted to final concentrations of 100 μM to 49 nM and added to the reaction. The final reaction volume was 100 μL. The fluorescence emitted by substrate cleavage was monitored by a microplate reader (SpectraMax M5, Molecular Devices, Sunnyvale, CA, USA) at a 488 nm excitation wavelength with an emission wavelength of 520 nm. Readings were taken every minute for 20 minutes, and the reactions were performed at 37° C. In order to convert RFU into μM, a standard curve was created by measuring fluorescence of free HiLyte Fluor 488, which was serially diluted from 250 nM to 3.9 nM. All data were plotted and analyzed with GraphPad Prism v. 6.07.

The next data set concerns the target Minerva virus protease (Norovirus GII.4 (Minerva virus), UniProt P54634). Nature of the data set: FRET enzyme kinetic assay, NoV GII.4 Minerva virus protease. It counts as biochemical. As to conditions: Minerva virus (GII.4) protease; inhibitor incubated with enzyme 90 minutes at 37° C. before FRET substrate. Here is the method: The ability of these compounds to inhibit the NoV, specifically Minerva virus protease catalytic Cys139 covalently (IC50 and Ki) was determined with an enzyme kinetic assay. NoV strains, specifically GII.4 such as the Minerva virus are responsible for causing the majority (˜80%) of infections in humans. The activity of the inhibitors was evaluated by monitoring the cleavage of a FRET substrate every one minute for 20 minutes (excitation/emission: 488/520 nm) using a SpectraMax M5 microplate reader (Molecular Devices, Sunnyvale CA). Serial dilutions of each inhibitor were incubated with enzyme for 90 minutes at 37° C. before addition of the FRET substrate to ensure complete inactivation. Commercially available protease inhibitors chymostatin and rupintrivir were used as controls.

Chain of Norovirus GI.1 (Norwalk virus) protease (Q83883 1101-1281): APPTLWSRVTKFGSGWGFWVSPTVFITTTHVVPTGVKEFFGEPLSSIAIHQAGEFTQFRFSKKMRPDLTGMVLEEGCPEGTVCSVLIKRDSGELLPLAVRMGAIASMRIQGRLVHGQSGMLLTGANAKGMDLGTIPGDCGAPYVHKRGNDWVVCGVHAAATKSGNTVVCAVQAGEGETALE
Chain of Minerva virus protease (P54634 whole entry, looked up): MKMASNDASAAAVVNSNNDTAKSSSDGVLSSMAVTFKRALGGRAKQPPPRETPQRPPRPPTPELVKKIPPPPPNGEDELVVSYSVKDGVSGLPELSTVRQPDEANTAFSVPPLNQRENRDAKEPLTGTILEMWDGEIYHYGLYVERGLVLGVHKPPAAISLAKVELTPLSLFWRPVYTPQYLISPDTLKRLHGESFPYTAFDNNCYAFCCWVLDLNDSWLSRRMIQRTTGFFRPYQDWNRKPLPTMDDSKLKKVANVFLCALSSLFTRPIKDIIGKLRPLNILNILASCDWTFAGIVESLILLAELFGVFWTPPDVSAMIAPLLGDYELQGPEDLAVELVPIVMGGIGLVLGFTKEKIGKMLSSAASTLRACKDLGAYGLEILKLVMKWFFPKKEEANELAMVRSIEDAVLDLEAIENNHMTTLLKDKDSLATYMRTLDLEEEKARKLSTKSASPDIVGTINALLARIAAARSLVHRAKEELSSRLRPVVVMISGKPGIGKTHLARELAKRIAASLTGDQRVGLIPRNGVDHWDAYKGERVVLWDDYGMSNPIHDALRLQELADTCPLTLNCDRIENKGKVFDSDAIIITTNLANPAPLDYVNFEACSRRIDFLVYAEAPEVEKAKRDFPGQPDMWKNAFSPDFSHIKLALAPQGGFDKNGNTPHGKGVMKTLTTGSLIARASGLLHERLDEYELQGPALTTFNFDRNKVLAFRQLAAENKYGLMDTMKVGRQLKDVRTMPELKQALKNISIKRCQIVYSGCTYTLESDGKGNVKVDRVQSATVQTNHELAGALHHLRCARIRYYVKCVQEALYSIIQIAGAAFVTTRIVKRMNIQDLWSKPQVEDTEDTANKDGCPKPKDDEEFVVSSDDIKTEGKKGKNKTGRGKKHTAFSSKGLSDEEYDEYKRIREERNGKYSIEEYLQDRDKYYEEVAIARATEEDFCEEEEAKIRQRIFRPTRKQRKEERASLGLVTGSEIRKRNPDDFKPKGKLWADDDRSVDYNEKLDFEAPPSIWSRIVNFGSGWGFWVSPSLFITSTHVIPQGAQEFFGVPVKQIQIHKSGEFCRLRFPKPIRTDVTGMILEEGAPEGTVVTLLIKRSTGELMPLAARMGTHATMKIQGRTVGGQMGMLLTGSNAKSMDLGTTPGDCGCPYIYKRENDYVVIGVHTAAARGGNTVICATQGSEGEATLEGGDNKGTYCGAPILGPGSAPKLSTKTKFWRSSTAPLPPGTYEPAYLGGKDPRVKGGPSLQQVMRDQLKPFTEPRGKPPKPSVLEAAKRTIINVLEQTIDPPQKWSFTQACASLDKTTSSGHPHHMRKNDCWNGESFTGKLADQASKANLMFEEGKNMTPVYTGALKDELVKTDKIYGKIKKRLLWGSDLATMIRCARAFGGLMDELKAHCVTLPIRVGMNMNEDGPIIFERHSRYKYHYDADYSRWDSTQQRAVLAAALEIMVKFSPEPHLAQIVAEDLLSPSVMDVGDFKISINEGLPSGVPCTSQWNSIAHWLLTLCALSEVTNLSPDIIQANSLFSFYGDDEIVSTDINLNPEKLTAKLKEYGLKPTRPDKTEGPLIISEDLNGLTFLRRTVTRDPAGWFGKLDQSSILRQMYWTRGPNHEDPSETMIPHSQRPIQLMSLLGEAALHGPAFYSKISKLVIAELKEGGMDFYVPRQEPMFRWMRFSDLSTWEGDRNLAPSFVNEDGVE

Regarding `CC(C)C[C@H](NC(=O)[C@H](Cc1ccc(O)cc1)NC(=O)OCc1ccccc1)C(=O)N[C@H](C=O)C[C@@H]1CCCNC1=O` [Compound 11, Benzyl ((S)-3-(4-hydroxyphenyl)-1-(((S)-4-methyl-1-oxo-1-(((S)-1-oxo-3-((S)-2-oxopiperidin-3-yl)propan-2-yl)amino)pentan-2-v)amino)-1-oxopropan-2-yl)carbamate], the CC50 is more than 100 µM in data set [1], more than 100 µM in data set [3], more than 10 µM in data set [4] and more than 100 µM in data set [5]. For the same molecule, the EC50 in data set [2] worked out at 0.7 µM. Moreover, the EC90 in data set [2] amounted to 2.4 µM.

`CC(C)C[C@H](NC(=O)[C@H](Cc1cccc2ccccc12)NC(=O)OCc1ccccc1)C(=O)N[C@H](C=O)C[C@@H]1CCCNC1=O` [Compound 19]: the CC50 is 32 µM in data set [1], 20 µM in data set [3], more than 10 µM in data set [4] and 24 µM in data set [5]. For the same molecule, in data set [2], the EC50 is 0.07 µM. In addition, the 90% effect concentration (EC90) in data set [2] was found to be 0.27 µM.

Regarding `CC(C)C[C@H](NC(=O)[C@H](Cc1cccc2ccccc12)NC(=O)c1cnccn1)C(=O)N[C@H](C=O)C[C@@H]1CCCNC1=O` [Compound 23], the CC50 is 39 µM in data set [1], more than 100 µM in data set [3], more than 10 µM in data set [4] and more than 100 µM in data set [5]. Moreover, the EC50 in data set [2] worked out at 0.07 µM. Besides, in data set [2], the EC90 was found to be 0.33 µM.

As to `CC(C)C[C@H](NC(=O)[C@H](Cc1cccc2ccccc12)NC(=O)c1cnccn1)C(=O)N[C@H](C=O)C[C@@H]1CCNC1=O` [Compound 29], the CC50 was 38 µM in data set [1], more than 100 µM in data set [3], more than 10 µM in data set [4] and more than 100 µM in data set [5]. Also, the EC50 in data set [2] worked out at 0.08 µM. Besides, the EC90 in data set [2] came to 0.46 µM.

For the molecule `CC(C)C[C@H](NC(=O)[C@H](Cc1ccc(F)cc1)NC(=O)OCc1ccccc1)C(=O)N[C@H](C=O)C[C@@H]1CCCNC1=O` [Compound 35, Benzyl ((S)-3-(4-fluorophenyl)-1-(((S)-4-methyl-1-oxo-1-(((S)-1-oxo-3-((S)-2-oxopiperidin-3-yl)propan-2-yl)amino)pentan-2-yl)amino)-1-oxopropan-2-yl)carbamate], the CC50 in data set [1] (CEM lymphoblastoid cells) is 35 µM; in data set [3], more than 100 µM; in data set [4] it was 60 µM; in data set [5], 52 µM. This molecule also registered an IC50 in data set [6] of 0.096 ± 0.011 µM. In addition, in data set [6], the affinity, expressed as Ki, was 0.465 ± 0.201 µM.

As for `CC(C)C[C@H](NC(=O)[C@H](Cc1cccc2ccccc12)NC(=O)OCc1ccccc1)C(=O)N[C@H](/C=C(\C#N)C(N)=O)C[C@@H]1CCCNC1=O` [Compound 36, Benzyl ((S)-1-(((S)-1-(((S,E)-5-amino-4-cyano-5-oxo-1-((S)-2-oxopiperidin-3-yl)pent-3-en-2-yl)amino)-4-methyl-1-oxopentan-2-yl)amino)-3-(naphthalen-1-yl)-1-oxopropan-2-yl)carbamate], the CC50 was 9 µM in data set [1], more than 100 µM in data set [3], 8 µM in data set [4] and 45 µM in data set [5]. Besides, the results for the IC50 (in data set [6]; against Minerva virus protease) were 0.593 ± 0.124 µM and 1.17 ± 0.333 µM, respectively. Besides, the Ki in data set [6] came out at 1.7 ± 0.332 µM.

On to `CC(C)C[C@H](NC(=O)[C@H](Cc1cccc2ccccc12)NC(=O)OCc1ccccc1)C(=O)N[C@@H](C[C@@H]1CCCNC1=O)C(O)C(F)(F)F` (stereo partly drawn) [Compound 38, Benzyl ((2S)-1-(((2S)-4-methyl-1-oxo-1-(((2S)-4,4,4-trifluoro-3-hydroxy-1-((S)-2-oxopiperidin-3-yl)butan-2-yl)amino)pentan-2-yl)amino)-3-(naphthalen-1-yl)-1-oxopropan-2-yl)carbamate], for which the CC50 is 6 µM in data set [1] (CEM lymphoblastoid cells), 22 µM in data set [3], 13 µM in data set [4] and 18 µM in data set [5]. The IC50 in data set [6] was more than 10 µM.

With `CC(C)C[C@H](NC(=O)[C@H](Cc1cccc2ccccc12)NC(=O)OCc1ccccc1)C(=O)N[C@@H](C[C@@H]1CCCNC1=O)C(=O)C(F)(F)F` [Compound 39, Benzyl ((S)-1-(((S)-4-methyl-1-oxo-1-(((S)-4,4,4-trifluoro-3-oxo-1-((S)-2-oxopiperidin-3-yl)butan-2-yl)amino)pentan-2-yl)amino)-3-(naphthalen-1-yl)-1-oxopropan-2-yl)carbamate], the CC50 in data set [1] was 2 µM; in data set [3], 11 µM; in data set [4], 14 µM; in data set [5], 39 µM. This molecule also came in with an IC50 in data set [6] of more than 10 µM.

In data set [6], `CC(C)C[C@H](NC(=O)[C@H](Cc1cccc2ccccc12)NC(=O)OCc1ccccc1)C(=O)N[C@H](/C=C/C=O)C[C@@H]1CCNC1=O` [Compound 64, Benzyl ((S)-1-(((S)-4-methyl-1-oxo-1-(((S,E)-5-oxo-1-((S)-2-oxopyrrolidin-3-yl)pent-3-en-2-yl)amino)pentan-2-yl)amino)-3-(naphthalen-1-yl)-1-oxopropan-2-yl)carbamate] showed an IC50 of 10 µM.

Consider `CC(C)C[C@H](NC(=O)[C@H](Cc1cccc2ccccc12)NC(=O)OCc1ccccc1)C(=O)N[C@@H](C[C@@H]1CCNC1=O)C1OC1S(C)(=O)=O` (stereo partly drawn) [Compound 67, Benzyl ((2S)-1-(((2S)-4-methyl-1-(((1S)-1-(3-(methylsulfonyl)oxiran-2-yl)-2-((S)-2-oxopyrrolidin-3-yl)ethyl)amino)-1-oxopentan-2-yl)amino)-3-(naphthalen-1-yl)-1-oxopropan-2-yl)carbamate], for which the CC50 in data set [1] was 64 µM; in data set [3] it was more than 100 µM; in data set [5] it was more than 100 µM. The EC50 in data set [2] amounted to 4.33 µM. Moreover, in data set [2], the EC90 was more than 20 µM. The molecule also showed an IC50 in data set [6] of more than 10 µM.

Turning to `O=C[C@H](C[C@@H]1CCCNC1=O)NC(=O)[C@H](Cc1ccccc1)NC(=O)[C@H](Cc1cccc2ccccc12)NC(=O)OCc1ccccc1` [Compound 83, Benzyl ((S)-3-(naphthalen-1-yl)-1-oxo-1-(((S)-1-oxo-1-(((S)-1-oxo-3-((S)-2-oxopiperidin-3-yl)propan-2-yl)amino)-3-phenylpropan-2-yl)amino)propan-2-yl)carbamate], in data set [1] (CEM lymphoblastoid cells), the CC50 amounted to 17 µM. In data set [2], the EC50 was found to be 0.33 µM and the EC90 was found to be 0.91 µM. Also, in data set [3], the CC50 is 41.2 µM. In data set [6], this molecule had an IC50 of 0.084 ± 0.019 µM and an inhibitory constant (Ki) of 0.256 ± 0.057 µM. Besides, the CC50 in data set [5] came out at 48.7 µM.

As for `O=C(N[C@@H](Cc1cccc2ccccc12)C(=O)N[C@@H](Cc1ccccc1)C(=O)N[C@H](CCl)C[C@@H]1CCCNC1=O)OCc1ccccc1` [Compound 84, Benzyl ((S)-1-(((S)-1-(((S)-1-chloro-3-((S)-2-oxopiperidin-3-yl)propan-2-yl)amino)-1-oxo-3-phenylpropan-2-yl)amino)-3-(naphthalen-1-yl)-1-oxopropan-2-yl)carbamate], the results for the CC50 in data set [1] (CEM lymphoblastoid cells), in data set [3] and in data set [5] were 26.6 µM, 51.7 µM and 75 µM, respectively. Besides, the EC50 in data set [2] was more than 10 µM. The molecule further had an IC50 in data set [6] of more than 100 µM.
